Measured values taken from EPA's ToxValDB 9.5.

System: Mus musculus
Conditions: oral
[1] = acute, duration: 1 days, gavage, F, Body Weight: 12% decreased body weight 30 days post-exposure + Endocrine: 2-fold increase in T3 and 4-fold increase in T4 levels 30 days …
[2] = developmental, duration: 10 days, gavage, F, Body Weight: No weight gain at 6.4 mg/kg/day and weight loss at 12.8 mg/kg/day (net change of -2.4)
[3] = developmental, duration: 10 days, gavage, F, Developmental: 18-22% decreases in fetal weight per litter at ?1 mg/kg/day / decreases in live fetuses per litter at 12.8 mg/kg/day (4.6 …
[4] = short-term, duration: 4 weeks, F, B6C3F1, Immunotoxicological: Decreases in splenic T-cells, T-cell subsets, and macrophages

O=C(O)C(F)(F)C(F)(F)C(F)(F)C(F)(F)C(F)(F)C(F)(F)C(F)(F)C(F)(F)C(F)(F)F [Perfluorodecanoic acid]
LOAEL [1]: 80 mg/kg-day | NOAEL [1]: 40 mg/kg-day | NOAEL (acute, duration: 1 days, gavage, F, Cardiovascular: No histological alterations in the heart 30 days post-exposure / decreased relative heart weight at 80 mg/kg/day + Hepatic…): 80 mg/kg-day | LOAEL (acute, duration: 1 days, gavage, F, Death: LD50 in 30-day observation period): 120 mg/kg-day | NOAEL (acute, duration: 1 days, gavage, F, Hepatic: Increase in hepatic lipids and liver weight 2 days post-exposure at 40 mg/kg/day): 160 mg/kg-day | LOAEL (acute, duration: 1 days, gavage, F, Immunotoxicological: 28% decrease in relative spleen weight at 80 mg/kg/day / atrophy and lymphoid depletion in thymus and spleen at 160 mg…): 160 mg/kg-day | NOAEL (developmental, duration: 1 days, gavage, M, CD1, Developmental: No alteration in spontaneous activity or habituation at 2-4 months of age): 10.8 mg/kg-day | LOAEL [2]: 6.4 mg/kg-day | NOAEL [2]: 3 mg/kg-day | LOAEL (developmental, duration: 10 days, gavage, F, Body Weight: No weight gain at 6.4 mg/kg/day and weight loss at 12.8 mg/kg/day (net change of -2.4) + Developmental: 18-22% decreases in …): 12.8 mg/kg-day | LOAEL [3]: 1 mg/kg-day | NOAEL [3]: 0.3 mg/kg-day | NOAEL (short-term, duration: 4 weeks, F, B6C3F1): 5 mg/kg-day | LOAEL [4]: 1.25 mg/kg-day | NOAEL [4]: 0.625 mg/kg-day | LOAEL (short-term, duration: 10 days, diet, M, Body Weight: 33% weight loss): 78 mg/kg-day | NOAEL (short-term, duration: 10 days, diet, M, Hepatic: 36% increase in liver weight): 78 mg/kg-day
